Experimental findings from patent US12522602B2, “Derivatives having 2,3-dihydro-1H-indene or 2,3-dihydrobenzofuran moiety or pharmaceutically acceptable salt thereof and pharmaceutical compositions comprising the same” (YUHAN CORPORATION, priority 2019, dated 2026) are described below.

This assay has as its system GM1 production in Jurkat cells. Kind of assay: cells. It is filed as cell-based. As to conditions: Homo sapiens, Jurkat, 72 h.

For the molecule `O=C(NC1CCc2ccc(-c3cccc(F)c3)cc21)O[C@@H]1CN2CCC1CC2` (stereo partly drawn) [Example 29, (S)-quinuclidin-3-yl (6-(3-fluorophenyl)-2,3-dihydro-1H-inden-1-yl)carbamate], the IC50 (usually the concentration that inhibits the measured activity by half) worked out at 63 nM. The same measure for `O=C(NC1CCc2ccc(-c3cccc(Cl)c3)cc21)O[C@@H]1CN2CCC1CC2` (stereo partly drawn) [Example 30, (S)-quinuclidin-3-yl (6-(3-chlorophenyl)-2,3-dihydro-1H-inden-1-yl)carbamate]: 107 nM; for `O=C(NC1CCc2ccc(-c3cccc(C(F)(F)F)c3)cc21)O[C@@H]1CN2CCC1CC2` (stereo partly drawn) [Example 31, (S)-quinuclidin-3-yl (6-(3-(trifluoromethyl)phenyl)-2,3-dihydro-1H-inden-1-yl)carbamate]: 65.5 nM; for `O=C(NC1CCc2ccc(-c3cccc(OC(F)(F)F)c3)cc21)O[C@@H]1CN2CCC1CC2` (stereo partly drawn) [Example 32, (S)-quinuclidin-3-yl (6-(3-(trifluoromethoxy)phenyl)-2,3-dihydro-1H-inden-1-yl)carbamate]: 120 nM. As for `O=C(NC1CCc2ccc(-c3ccc(OC(F)F)cc3)cc21)O[C@@H]1CN2CCC1CC2` (stereo partly drawn) [Example 37, (S)-quinuclidin-3-yl (6-(4-(difluoromethoxy)phenyl)-2,3-dihydro-1H-inden-1-yl)carbamate], the figure is 55.2 nM; as for `Cc1ccc(-c2ccc3c(c2)C(NC(=O)O[C@@H]2CN4CCC2CC4)CC3)cc1` (stereo partly drawn) [Example 38, (S)-quinuclidin-3-yl (6-(p-tolyl)-2,3-dihydro-1H-inden-1-yl)carbamate], 62 nM; as for `O=C(NC1CCc2ccc(-c3ccc(F)c(F)c3)cc21)O[C@@H]1CN2CCC1CC2` (stereo partly drawn) [Example 39, (S)-quinuclidin-3-yl (6-(3,4-difluorophenyl)-2,3-dihydro-1H-inden-1-yl)carbamate], 51.9 nM. The molecule `O=C(NC1CCc2ccc(-c3ccc(F)cc3F)cc21)O[C@@H]1CN2CCC1CC2` (stereo partly drawn) [Example 43, (S)-quinuclidin-3-yl (6-(2,4-difluorophenyl)-2,3-dihydro-1H-inden-1-yl)carbamate] gave a 50% inhibitory concentration (IC50) of 183 nM. As for `O=C(NC1CCc2ccc(-c3cc(F)c(F)cc3F)cc21)O[C@@H]1CN2CCC1CC2` (stereo partly drawn) [Example 44, (S)-quinuclidin-3-yl (6-(2,4,5-trifluorophenyl)-2,3-dihydro-1H-inden-1-yl)carbamate], the figure is 35.2 nM; as for `O=C(NC1CCc2ccc(-c3ccc(F)c(F)c3F)cc21)O[C@@H]1CN2CCC1CC2` (stereo partly drawn) [Example 45, (S)-quinuclidin-3-yl (6-(2,3,4-trifluorophenyl)-2,3-dihydro-1H-inden-1-yl)carbamate], 57.3 nM; as for `O=C(NC1CCc2ccc(-c3cc(Cl)ccc3Cl)cc21)O[C@@H]1CN2CCC1CC2` (stereo partly drawn) [Example 46, (S)-quinuclidin-3-yl (6-(2,5-dichlorophenyl)-2,3-dihydro-1H-inden-1-yl)carbamate], 19.2 nM. As for `O=C(NC1CCc2ccc(-c3ccc(Cl)c(Cl)c3)cc21)O[C@@H]1CN2CCC1CC2` (stereo partly drawn) [Example 47, (S)-quinuclidin-3-yl (6-(3,4-dichlorophenyl)-2,3-dihydro-1H-inden-1-yl)carbamate], the figure is 26.6 nM; as for `O=C(NC1CCc2ccc(-c3cc(Cl)cc(Cl)c3)cc21)O[C@@H]1CN2CCC1CC2` (stereo partly drawn) [Example 48, (S)-quinuclidin-3-yl (6-(3,5-dichlorophenyl)-2,3-dihydro-1H-inden-1-yl)carbamate], 65.7 nM; as for `CC1(C)Cc2ccc(-c3ccc(F)cc3)cc2C1NC(=O)O[C@@H]1CN2CCC1CC2` (stereo partly drawn) [Example 49, (S)-quinuclidin-3-yl (6-(4-fluorophenyl)-2,2-dimethyl-2,3-dihydro-1H-inden-1-yl)carbamate], 61.4 nM. `CC1(C)Cc2ccc(-c3ccc(Cl)cc3)cc2C1NC(=O)O[C@@H]1CN2CCC1CC2` (stereo partly drawn) [Example 50, (S)-quinuclidin-3-yl (6-(4-chlorophenyl)-2,2-dimethyl-2,3-dihydro-1H-inden-1-yl)carbamate] showed an IC50 of 52.3 nM.
